Laboratory results reported in US11779600B2, “Methods of treating or preventing alzheimer's disease and associated conditions” (CEDARS-SINAI MEDICAL CENTER, priority 2016, dated 2023).

System: bone marrow-derived macrophages (MΦ^BM)
Experiment: Fibrillar Aβ1-42 phagocytosis assay in bone marrow-derived macrophages
Format: cell-based, mouse
Protocol: Lyophilized non-fluoro amyloid-β1-42 peptide (#20276; Anaspec) was initially monomerized by dissolving it in ice-cold HFIP (hexafluoroisopropanol) (#52512; Sigma) to a final concentration of 1 mM and then aliquoted in sterile siliconized microcentrifuge tubes. The HFIP was first evaporated while in the sterile hood and then under vacuum conditions in a SpeedVac for 2 h to remove any trace of HFIP; the peptide film was stored at −20° C. until use. To induce fibril formation, fluoro (HiLyte647; #64161; Anaspec) and non-fluoro amyloid-β1-42 films were resuspended in media to which 10% of sterile NaOH 60 mM was first added and the media were vortexed for 30 s. Then, a sterile 45% H2O and a sterile 45% solution of 20 mM NaH2PO4+Na2HPO4 (pH 7.4) were added, and the media were vortexed again and incubated on a shaker for 2 weeks at 37° C. Pre-formed amyloid-β1-42 fibrils were then sonicated for 60 s and diluted to 100 nM using the same media prior to the phagocytosis assay.
To test amyloid-β phagocytosis by macrophage, in repeated experiments monocytes were isolated from the bone marrow of wild-type mice (n=18 mice) and differentiated into macro-phage by 7-day cultivation in complete RPMI-1640 medium (#21870; Life Technologies) with 10% serum and 20 ng/ml MCSF (#315-02; PeproTech). Bone marrow-derived macrophages (MΦBM) were generated from femurs and tibiae cultured for 6-7 days in complete RPMI 1640 medium (Life Technologies) with 10% FBS, 100 U/ml penicillin, 100 μg/ml streptomycin, 2 mM L-glutamine and 20 ng/ml MCSF (PeproTech). Primary cultures of macrophage were then plated at 1.2×10^5 cells per well (3-4 wells for each condition) in 24-well tissue-culture plates on glass cover-slips overnight. Next, macrophages were either treated with 30 μg/ml GA (Copaxone®; TEVA Neuroscience), Brefeldin A (BFA; Sigma, 1X), or 10 μM Minocycline (Sigma) for the duration of 1, 3, or 24 h, or not treated (control group). Before addition of fibrillar amyloid-β1-42, the cells were chilled in a 4° C. ice bath for 5 min; immediately after addition of the preformed fibrillar amyloid-β1-42 (100 nM), the plates were centrifuged at 515g in 25° C. followed by incubation at 37° C. for 30 or 60 min. The cells were then rinsed with amyloid-β-free medium to remove non-incorporated amyloid-β and later washed twice with PBS. Methanol (99.8%) at −20° C. for 20 min or 4% paraformaldehyde at room temperature for 12 min was used for fixation of the cells followed by repeated washes with PBS. […] The fluorescent signal and its total area were determined and quantified by the conversion of individual images to greyscale and standardizing to baseline using histogram-based thresholds with NIH ImageJ software. […]

## glatiramer acetate [GA]
24 hours treatment, then fAβ1-42 for 30 min, quantitative ICC (FIG. 16E)
  increase of Aβ phagocytosis: 2.5 fold
GA pretreated, 100 nM fibrillar Aβ1-42 for 30 min, qICC and ELISA
  increase of fibrillar Aβ1-42 uptake in MΦ^BM: 2.5-2.85 fold
GA-treated MΦ (FIG. 5D)
  rise in fAβ1-42 uptake: 2.8 fold
